Laboratory results published in PMC5218480 (PLoS ONE, 2017).

System: MV-4-11 cells
Test: Gene expression microarray analysis (Affymetrix PrimeView) and GSEA
Type: cell-based, human
Set-up: RFU PODN (11730768_x_at) / Fold change /veh PODN (11730768_x_at) / RFU LINC00158 (11744669_a_at) / Fold change /veh LINC00158 (11744669_a_at) / RFU DUSP10 (11751237_a_at) / Fold change /veh DUSP10 (11751237_a_at) / RFU ID3 (11757404_x_at) / Fold change /veh ID3 (11757404_x_at) / RFU PLEKHG5 (11737974_s_at) / Fold change /veh PLEKHG5 (11737974_s_at) / RFU LRRC4B (11730491_at) / Fold change /veh LRRC4B (11730491_at) / RFU GIMAP4 (11747438_a_at) / Fold change /veh GIMAP4 (11747438_a_at) / RFU KRT8 (11758183_x_at) / Fold change /veh KRT8 (11758183_x_at) / RFU CNN1 (11734310_a_at) / Fold change /veh CNN1 (11734310_a_at) / RFU VPS37D (11726825_at) / Fold change /veh VPS37D (11726825_at) / RFU C10orf10 (11716522_x_at) / Fold change /veh C10orf10 (11716522_x_at) / RFU KIR2DL2 /// KIR2DL4 /// KIR2DL5A /// KIR2DL5B /// KIR2DS1 /// KIR2DS2 /// KIR2DS3 /// KIR2DS4 /// KIR3DL3 /// KIR3DL3 /// KIR3DS1 (11738374_at) / Fold change /veh KIR2DL2 /// KIR2DL4 /// KIR2DL5A /// KIR2DL5B /// KIR2DS1 /// KIR2DS2 /// KIR2DS3 /// KIR2DS4 /// KIR3DL3 /// KIR3DL3 /// KIR3DS1 (11738374_at) / RFU C1QL1 (11718748_at) / Fold change /veh C1QL1 (11718748_at) / RFU TMPRSS4 (11747572_a_at) / Fold change /veh TMPRSS4 (11747572_a_at) / RFU HAMP (11756126_x_at) / Fold change /veh HAMP (11756126_x_at) / RFU RNFT2 (11725882_a_at) / Fold change /veh RNFT2 (11725882_a_at) / RFU NR4A2 (11747474_a_at) / Fold change /veh NR4A2 (11747474_a_at) / RFU ABCC12 (11746883_a_at) / Fold change /veh ABCC12 (11746883_a_at) / RFU TMEM136 (11760407_x_at) / Fold change /veh TMEM136 (11760407_x_at) / RFU CLDN22 /// WWC2 (11732394_at) / Fold change /veh CLDN22 /// WWC2 (11732394_at) / RFU HLA-DPB1 (11760878_x_at) / Fold change /veh HLA-DPB1 (11760878_x_at) / RFU SPINT1 (11716480_a_at) / Fold change /veh SPINT1 (11716480_a_at) / RFU GAP43 (11754022_s_at) / Fold change /veh GAP43 (11754022_s_at) / RFU A4GNT (11735810_at) / Fold change /veh A4GNT (11735810_at) / RFU PRB3 (11715151_x_at) / Fold change /veh PRB3 (11715151_x_at) / RFU TUBB4B (11761932_at) / Fold change /veh TUBB4B (11761932_at) / RFU CAPN14 (11732068_a_at) / Fold change /veh CAPN14 (11732068_a_at) / RFU TMCC2 (11721928_a_at) / Fold change /veh TMCC2 (11721928_a_at) / RFU IRGQ (11745062_a_at) / Fold change /veh IRGQ (11745062_a_at) / RFU FAM174B (11720279_a_at) / Fold change /veh FAM174B (11720279_a_at) / RFU TMPRSS4 (11748680_a_at) / Fold change /veh TMPRSS4 (11748680_a_at) / RFU FAM212B (11763350_a_at) / Fold change /veh FAM212B (11763350_a_at) / RFU PLEKHG5 (11743358_a_at) / Fold change /veh PLEKHG5 (11743358_a_at) / RFU ZSCAN30 (11745921_a_at) / Fold change /veh ZSCAN30 (11745921_a_at) / RFU CMKLR1 (11741424_a_at) / Fold change /veh CMKLR1 (11741424_a_at) / RFU LOC101060620 /// MAPK8IP1 (11723275_at) / Fold change /veh LOC101060620 /// MAPK8IP1 (11723275_at) / RFU SPTSSB (11747773_x_at) / Fold change /veh SPTSSB (11747773_x_at) / RFU PRSS12 (11739890_at) / Fold change /veh PRSS12 (11739890_at) / RFU BIN1 (11741810_x_at) / Fold change /veh BIN1 (11741810_x_at) / RFU WNT11 (11732464_a_at) / Fold change /veh WNT11 (11732464_a_at) / RFU C10orf10 (11716521_a_at) / Fold change /veh C10orf10 (11716521_a_at) / RFU C5orf56 (11738089_at) / Fold change /veh C5orf56 (11738089_at) / RFU CYB561 (11721691_x_at) / Fold change /veh CYB561 (11721691_x_at) / RFU ANKRD19P (11752326_a_at) / Fold change /veh ANKRD19P (11752326_a_at) / RFU OR2T12 /// OR2T33 /// OR2T8 (11738714_s_at) / Fold change /veh OR2T12 /// OR2T33 /// OR2T8 (11738714_s_at) / RFU VCAN (11748164_a_at) / Fold change /veh VCAN (11748164_a_at) / RFU JSRP1 (11732532_at) / Fold change /veh JSRP1 (11732532_at) / RFU KRTAP10-11 (11738290_x_at) / Fold change /veh KRTAP10-11 (11738290_x_at) / RFU MYO3A (11730013_a_at) / Fold change /veh MYO3A (11730013_a_at) / RFU EBF3 (11725865_a_at) / Fold change /veh EBF3 (11725865_a_at) / RFU CAMK2N1 (11719241_x_at) / Fold change /veh CAMK2N1 (11719241_x_at) / RFU C5orf56 (11738088_a_at) / Fold change /veh C5orf56 (11738088_a_at) / RFU OLFML3 (11715873_a_at) / Fold change /veh OLFML3 (11715873_a_at) / RFU LOC100653217 /// NTM (11731650_a_at) / Fold change /veh LOC100653217 /// NTM (11731650_a_at) / RFU MAPK11 (11762145_a_at) / Fold change /veh MAPK11 (11762145_a_at) / RFU FIZ1 (11724087_x_at) / Fold change /veh FIZ1 (11724087_x_at) / RFU OASL (11726364_x_at) / Fold change /veh OASL (11726364_x_at) / RFU SOX15 (11748057_x_at) / Fold change /veh SOX15 (11748057_x_at) / RFU CD79A (11719716_a_at) / Fold change /veh CD79A (11719716_a_at) / RFU HIST1H1D (11736915_at) / Fold change /veh HIST1H1D (11736915_at) / RFU CASKIN2 (11723855_a_at) / Fold change /veh CASKIN2 (11723855_a_at) / RFU LOC730098 (11760151_x_at) / Fold change /veh LOC730098 (11760151_x_at) / RFU OR4N2 (11742367_at) / Fold change /veh OR4N2 (11742367_at) / RFU PRRT2 (11749266_a_at) / Fold change /veh PRRT2 (11749266_a_at) / RFU SNX32 (11753110_a_at) / Fold change /veh SNX32 (11753110_a_at) / RFU CDHR5 (11726645_a_at) / Fold change /veh CDHR5 (11726645_a_at) / RFU RCAN1 (11760418_a_at) / Fold change /veh RCAN1 (11760418_a_at) / RFU FAM167A (11723789_a_at) / Fold change /veh FAM167A (11723789_a_at) / RFU FAM26E (11764081_at) / Fold change /veh FAM26E (11764081_at) / RFU ISYNA1 (11749810_s_at) / Fold change /veh ISYNA1 (11749810_s_at) / RFU ACY1 (11761880_at) / Fold change /veh ACY1 (11761880_at) / RFU 11764098_at / Fold change /veh 11764098_at / RFU SAMD14 (11745864_x_at) / Fold change /veh SAMD14 (11745864_x_at) / RFU NPB (11741838_a_at) / Fold change /veh NPB (11741838_a_at) / RFU TMPRSS6 (11731388_a_at) / Fold change /veh TMPRSS6 (11731388_a_at) / RFU KRTAP10-2 (11738614_at) / Fold change /veh KRTAP10-2 (11738614_at) / RFU ARHGAP8 /// PRR5-ARHGAP8 (11727945_x_at) / Fold change /veh ARHGAP8 /// PRR5-ARHGAP8 (11727945_x_at) / RFU KRTAP5-7 /// NADSYN1 (11734609_at) / Fold change /veh KRTAP5-7 /// NADSYN1 (11734609_at) / RFU RASL12 (11751679_a_at) / Fold change /veh RASL12 (11751679_a_at) / RFU CDKN2B (11736163_a_at) / Fold change /veh CDKN2B (11736163_a_at) / RFU PRF1 (11729649_at) / Fold change /veh PRF1 (11729649_at) / RFU, ZNF638 /// ZNF638-IT1 / Fold change vs veh, ZNF638 /// ZNF638-IT1 / RFU, PANK3 / Fold change vs veh, PANK3 / RFU, SH3YL1 / Fold change vs veh, SH3YL1 / RFU, ZEB2 / Fold change vs veh, ZEB2 / RFU, NRIP1 / Fold change vs veh, NRIP1 / RFU, PTTG1IP / Fold change vs veh, PTTG1IP / RFU, CAPN2 / Fold change vs veh, CAPN2 / RFU, MED14 / Fold change vs veh, MED14 / RFU, SNORA58 / Fold change vs veh, SNORA58 / RFU, C1orf63 / Fold change vs veh, C1orf63 / RFU, LRRFIP1 / Fold change vs veh, LRRFIP1 / RFU, NDUFAF7 / Fold change vs veh, NDUFAF7 / RFU, SLC12A2 / Fold change vs veh, SLC12A2 / RFU, IBTK / Fold change vs veh, IBTK / RFU, ESF1 / Fold change vs veh, ESF1 / Fold change vs veh, TMEM50B / RFU, TAOK1 / Fold change vs veh, TAOK1 / RFU, ACBD3 / Fold change vs veh, ACBD3 / RFU, TMA16 / Fold change vs veh, TMA16 / RFU, RWDD3 / Fold change vs veh, RWDD3 / RFU, BCAT1 / Fold change vs veh, BCAT1 / RFU, EDEM3 / Fold change vs veh, EDEM3 / RFU, TMEM33 / Fold change vs veh, TMEM33 / RFU, WDR75 / Fold change vs veh, WDR75 / RFU, AHCTF1 / Fold change vs veh, AHCTF1 / RFU, TFRC / Fold change vs veh, TFRC / RFU, ZDHHC17 / Fold change vs veh, ZDHHC17 / RFU, NOM1 / Fold change vs veh, NOM1 / RFU, ARL8B / Fold change vs veh, ARL8B / RFU, ZBTB11 / Fold change vs veh, ZBTB11 / RFU, TAMM41 / Fold change vs veh, TAMM41 / RFU, KIAA1704 /// LOC100996395 / Fold change vs veh, KIAA1704 /// LOC100996395 / RFU, ING1 / Fold change vs veh, ING1 / RFU, TRMT61B / Fold change vs veh, TRMT61B / RFU, FUBP3 / Fold change vs veh, FUBP3 / RFU, TP53 / Fold change vs veh, TP53 / RFU, TNKS2 / Fold change vs veh, TNKS2 / RFU, ZFP14 / Fold change vs veh, ZFP14 / RFU, ACTR2 / Fold change vs veh, ACTR2 / RFU, PPP3R1 / Fold change vs veh, PPP3R1 / RFU, PIK3R1 / Fold change vs veh, PIK3R1 / RFU, HNRNPA1 / Fold change vs veh, HNRNPA1 / RFU, RNF170 / Fold change vs veh, RNF170 / RFU, ZNF28 / Fold change vs veh, ZNF28 / RFU, RNGTT / Fold change vs veh, RNGTT / RFU, OGT / Fold change vs veh, OGT / RFU, BRD1 / Fold change vs veh, BRD1 / RFU, MARS / Fold change vs veh, MARS / RFU, ZNF655 / Fold change vs veh, ZNF655 / RFU, FAHD1 / Fold change vs veh, FAHD1 / RFU, BDP1 / Fold change vs veh, BDP1 / RFU, LRRCC1 / Fold change vs veh, LRRCC1 / RFU, ARID1A / Fold change vs veh, ARID1A / RFU, ZNF146 / Fold change vs veh, ZNF146 / RFU, ZNF330 / Fold change vs veh, ZNF330 / RFU, GPN3 / Fold change vs veh, GPN3 / RFU, C9orf123 / Fold change vs veh, C9orf123 / RFU, N4BP2L2 / Fold change vs veh, N4BP2L2 / RFU, ARFIP1 / Fold change vs veh, ARFIP1 / RFU, FAM179B / Fold change vs veh, FAM179B / RFU, BCL10 / Fold change vs veh, BCL10 / RFU, UHRF1BP1L / Fold change vs veh, UHRF1BP1L / RFU, BET1 / Fold change vs veh, BET1 / RFU, CNOT2 / Fold change vs veh, CNOT2 / RFU, ZNF268 / Fold change vs veh, ZNF268 / Fold change vs veh, ZNF507 / RFU, DGCR2 / Fold change vs veh, DGCR2 / RFU, WDSUB1 / Fold change vs veh, WDSUB1 / Fold change vs veh, HSP90B1 /// MIR3652 / RFU, ADSS / Fold change vs veh, ADSS / RFU, GK / Fold change vs veh, GK / RFU, ZNF148 / Fold change vs veh, ZNF148 / RFU, TAF9 / Fold change vs veh, TAF9 / RFU, SLC1A5 / Fold change vs veh, SLC1A5 / RFU, SLMO2 / Fold change vs veh, SLMO2 / RFU, ABCC4 / Fold change vs veh, ABCC4 / RFU, LOC101060439 /// RAP1B / Fold change vs veh, LOC101060439 /// RAP1B / RFU, RFX7 / Fold change vs veh, RFX7 / RFU, GTPBP10 / Fold change vs veh, GTPBP10 / RFU, CNEP1R1 / Fold change vs veh, CNEP1R1 / RFU, BIVM-ERCC5 /// ERCC5 / Fold change vs veh, BIVM-ERCC5 /// ERCC5 / RFU, ILF3 / Fold change vs veh, ILF3 / RFU 11762660_at / Fold change /veh 11762660_at / RFU VCAN (11757783_s_at) / Fold change /veh VCAN (11757783_s_at) / RFU DDX43 (11728927_at) / Fold change /veh DDX43 (11728927_at) / RFU KRT8 (11758188_x_at) / Fold change /veh KRT8 (11758188_x_at) / RFU NKD1 (11759106_at) / Fold change /veh NKD1 (11759106_at) / RFU SRD5A1 (11742802_a_at) / Fold change /veh SRD5A1 (11742802_a_at) / RFU TPSAB1 /// TPSB2 (11721975_s_at) / Fold change /veh TPSAB1 /// TPSB2 (11721975_s_at) / RFU GSTM3 (11746129_a_at) / Fold change /veh GSTM3 (11746129_a_at) / RFU IL23R (11737362_x_at) / Fold change /veh IL23R (11737362_x_at) / RFU TMEM51 (11727254_a_at) / Fold change /veh TMEM51 (11727254_a_at) / RFU PIWIL2 (11732686_x_at) / Fold change /veh PIWIL2 (11732686_x_at) / RFU ORM1 (11744905_x_at) / Fold change /veh ORM1 (11744905_x_at) / RFU CCDC152 (11743942_at) / Fold change /veh CCDC152 (11743942_at) / RFU ECM1 (11717891_a_at) / Fold change /veh ECM1 (11717891_a_at) / RFU IL23R (11748794_a_at) / Fold change /veh IL23R (11748794_a_at) / RFU TNFAIP8L3 (11732012_x_at) / Fold change /veh TNFAIP8L3 (11732012_x_at) / RFU MBOAT4 (11741988_at) / Fold change /veh MBOAT4 (11741988_at) / RFU 11764193_at / Fold change /veh 11764193_at / RFU TMEM53 (11763286_at) / Fold change /veh TMEM53 (11763286_at) / RFU MAGEB2 (11727129_at) / Fold change /veh MAGEB2 (11727129_at) / RFU TMEM200A (11744735_a_at) / Fold change /veh TMEM200A (11744735_a_at) / RFU CCDC152 (11751479_a_at) / Fold change /veh CCDC152 (11751479_a_at) / RFU FAM211A (11726209_a_at) / Fold change /veh FAM211A (11726209_a_at) / RFU RGS16 (11746705_a_at) / Fold change /veh RGS16 (11746705_a_at) / RFU VCAN (11755009_s_at) / Fold change /veh VCAN (11755009_s_at) / RFU RHOB (11743442_s_at) / Fold change /veh RHOB (11743442_s_at) / RFU RGS16 (11720943_a_at) / Fold change /veh RGS16 (11720943_a_at) / RFU RGS16 (11720944_at) / Fold change /veh RGS16 (11720944_at) / RFU, VPS4B / Fold change vs veh, VPS4B / RFU, CREB1 / Fold change vs veh, CREB1 / RFU, DNAJC13 / Fold change vs veh, DNAJC13 / RFU, GNAQ / Fold change vs veh, GNAQ / RFU, CDK5R1 / Fold change vs veh, CDK5R1 / RFU, ZRANB3 / Fold change vs veh, ZRANB3 / RFU, CUL4A / Fold change vs veh, CUL4A / RFU, CCNY / Fold change vs veh, CCNY / RFU, UFL1 / Fold change vs veh, UFL1 / RFU, COG3 / Fold change vs veh, COG3 / RFU, DIAPH2 / Fold change vs veh, DIAPH2 / RFU, SKA2 / Fold change vs veh, SKA2 / RFU, AFF3 / Fold change vs veh, AFF3 / RFU, LMF1 / Fold change vs veh, LMF1 / RFU, IPO11 / Fold change vs veh, IPO11 / RFU, DFFB / Fold change vs veh, DFFB / RFU, FOXP1 / Fold change vs veh, FOXP1 / RFU, CARD8 / Fold change vs veh, CARD8 / RFU, STRN3 / Fold change vs veh, STRN3 / RFU, ADK / Fold change vs veh, ADK / RFU, RASSF2 / Fold change vs veh, RASSF2 / RFU, WIPF1 / Fold change vs veh, WIPF1 / RFU, LARP1B / Fold change vs veh, LARP1B / RFU, RASA1 / Fold change vs veh, RASA1 / RFU, RB1 / Fold change vs veh, RB1 / RFU, PPFIA1 / Fold change vs veh, PPFIA1 / RFU, MAT2A / Fold change vs veh, MAT2A / RFU, CCT5 / Fold change vs veh, CCT5 / RFU, WDR92 / Fold change vs veh, WDR92 / RFU, CUX1 / Fold change vs veh, CUX1 / RFU, TTC7A / Fold change vs veh, TTC7A / RFU, TMEM135 / Fold change vs veh, TMEM135 / RFU, DEPTOR / Fold change vs veh, DEPTOR / RFU, CPM / Fold change vs veh, CPM / RFU, DNAJB6 / Fold change vs veh, DNAJB6 / RFU, CACNA2D3 / Fold change vs veh, CACNA2D3 / RFU, DTX4 / Fold change vs veh, DTX4 / RFU, TFCP2 / Fold change vs veh, TFCP2 / RFU, GMCL1 /// GMCL1P1 / Fold change vs veh, GMCL1 /// GMCL1P1 / RFU, AEBP2 / Fold change vs veh, AEBP2 / RFU, SNHG1 /// SNORD22 /// SNORD25 /// SNORD26 /// SNORD27 /// SNORD28 /// SNORD29 /// SNORD31 / Fold change vs veh, SNHG1 /// SNORD22 /// SNORD25 /// SNORD26 /// SNORD27 /// SNORD28 /// SNORD29 /// SNORD31 / Fold change (Aza/veh), C12orf56 (ProbeSet 11735607_a_at) / Fold change (ACY-1035/veh), C12orf56 (ProbeSet 11735607_a_at) / Fold change (Aza/veh), FGFR1OP (ProbeSet 11751329_s_at) / Fold change (ACY-1035/veh), FGFR1OP (ProbeSet 11751329_s_at) / Fold change (Aza/veh), VPS36 (ProbeSet 11739960_a_at) / Fold change (ACY-1035/veh), VPS36 (ProbeSet 11739960_a_at) / RFU SYPL1 (11715823_x_at) / Fold change /veh SYPL1 (11715823_x_at) / RFU IGFBP7 (11715501_s_at) / Fold change /veh IGFBP7 (11715501_s_at) / RFU REEP3 (11722064_at) / Fold change /veh REEP3 (11722064_at) / RFU IGLL1 (11728026_x_at) / Fold change /veh IGLL1 (11728026_x_at): dose or concentration left out as unconfirmed
Conditions: MV-4-11 cells, 48 hours

## Nc1ncn([C@@H]2O[C@H](CO)[C@@H](O)[C@H]2O)c(=O)n1 [azacitidine]
  Fold change /veh IRGQ (11745062_a_at): 1.17
